These results are taken from US11819498B2, “Methods and compositions for treating autophagy related disease states and conditions utilizing AMPK activation” (UNM RAINFOREST INNOVATIONS, priority 2019, dated 2023).

One test relates to LC3. Description: LC3 response in Huh7 and HeLa cells treated with TAK1 inhibitor and LLOMe. It counts as cell-based. The following applies: with LLOMe (FIG. 5C). As to the method:
(§1) Western blotting and co-immunoprecipitation (co-IP) were performed as described previously (Chauhan et al., 2016). For TAK1 inhibition, the cells were treated with TAK1 inhibitor (5Z-oxozeanol) 1 h prior to LLOMe treatment. For co-IP, cells were transfected with plasmids as indicated in figures and lysed in NP-40 buffer containing protease inhibitor cocktail and PMSF. Lysates were incubated with antibodies at 4° C. for 4 h followed by incubation with protein G Dynabeads for 2 h at 4° C. Beads were washed three times with PBS and boiled with SDS containing sample buffer, samples were processed for immunoblotting to analyze the interactions between immunoprecipitated proteins.

The test system of a further test is TAK1. Description: Western blot of HeLa cells treated with TAK1 inhibitor and LLOMe. The following applies: 1 mM LLOMe 30 min (FIG. 5C). It counts as cell-based. As to the method:
as §1
A general note: In western blotting, separated proteins are transferred to a membrane and probed.

The subject of the next test is AMPKα1. Description: Western blot of Huh7 cells treated with TAK1 inhibitor and LLOMe. The following applies: TAK1 inhibitor 1 h prior to 1 mM LLOMe 30 min. It is filed as cell-based. As to the method:
as §1

For the next test, the system named is AMPK. Description: Western blot of AMPK activation upon lysosomal damage by damaging agents. It counts as cell-based. The following applies: HEK293T cells, time and dose dependent, Western blot (FIGS. 4SE-F). The method, then:
as §1

The next test deals with ALIX puncta. Description: ALIX puncta by high content microscopy in THP-1 cells. The following applies: 250 μM metformin 2 h or 250 μM LLOMe 1 h (FIG. 5SF). It counts as cell-based. The method, then:
(§2) The cells were plated in 96 well plates on day 1 and were treated on day 2, followed by fixation in 4% paraformaldehyde for 5 min. After fixation, cells were washed twice with 1×PBS and were then permeabilized with 0.1% saponin in 3% Bovine serum albumin (BSA) for 30 min. The cells were then incubated with primary antibodies O/N at 4° C. On day3, the cells were washed twice with 1×PBS and incubated with secondary antibodies for 1 h followed by 5 min incubation with Hoechst 33342. High content microscopy with automated image acquisition and quantification was carried out using a Cellomics HCS scanner and iDEV software (ThermoFisher Scientific). Automated epifluorescence image collection was performed for a minimum of 500 cells per well. Epifluorescence images were machine analyzed using preset scanning parameters and object mask definitions. Hoechst 33342 staining was used for autofocus and to automatically define cellular outlines based on background staining of the cytoplasm. Primary objects were cells, and regions of interest (ROI) or targets were algorithm-defined by shape/segmentation, maximum/minimum average intensity, total area and total intensity, etc., to automatically identify puncta or other profiles within valid primary objects. All data collection, processing (object, ROI, and target mask assignments) and analyses were computer driven independently of human operators.

The next test relates to autophagy. The following applies: cited studies; cited from earlier work.
The subject of test [1] is Gal9 complexes with AMPK and TAK1. Description: APEX2-Gal9 proximity biotinylation and co-IP after LLOMe. It counts as cell-based. As to the method:
as §1

The subject of another test is AMPKα1 on lysosomes. Description: LysoIP lysosome purification and immunoblot. It counts as cell-based. The following applies: HEK293T cells, 1 mM LLOMe 30 min, LysoIP (FIG. 6B). As to the method:
Stable LysoIP cells were produced, by utilizing lentiviruses constructs from David M. Sabatini Lab (White Head Institute). HEK293T cells were transfected with pLJC5-TMEM192-3xHA or pLJC5-TMEM192-2XFLAG constructs in combination with pCMV-VSV-G and psPAX2 packaging plasmids, 60 h after transfection, the supernatant containing lentiviruses was collected and centrifuged to remove cells and then frozen at −80° C. To establish LysoIP stably expressing cell lines, HEK293T, Huh7 or Huh7 Gal9^KO cells were plated in […] in DMEM with 10% FBS and infected with 500 μL of virus-containing media overnight followed by addition of 1 μg/mL puromycin for selection. Cells were plated in 15 cm^2 culture plates and were used at 90% confluency for each LysoIP. Cells with or without 1 mM LLOMe treatment were quickly rinsed twice with PBS and then scraped in 1 mL of KPBS (136 mM KCl, 10 mM KH2PO4, pH7.25 was adjusted with KOH) and centrifuged at 3000 rpm for 2 min at 4° C. Pelleted cells were resuspended in 950 μL KPBS and reserved 25 μL for further processing of the whole-cell lysate. The remaining cells were gently homogenized with 20 strokes of a 2 mL homogenizer. The homogenate was then centrifuged at 3000 rpm for 2 min at 4° C. and the supernatant was incubated with 100 μL of KPBS prewashed anti-HA magnetic beads (ThermoFisher) on a gentle rotator shaker for 3 min. […]

A further test relates to LC3 puncta. Description: LC3 puncta by high content microscopy in THP-1 cells. It counts as cell-based. The following applies: 250 μM metformin 2 h, compared with LLOMe (FIG. 7A). The method, then: as §2
A further test relates to Gal8 puncta. Description: Gal8 puncta by high content microscopy in THP-1 cells. It is filed as cell-based. The following applies: 250 μM for 2 h, HCM (FIG. 5SB). As to the method:
as §2

In the next test the test system is ubiquitin puncta. Description: Ubiquitin puncta by high content microscopy in THP-1 cells. It counts as cell-based. The following applies: 250 μM metformin 2 h compared with 250 μM LLOMe 1 h (FIG. 5SC). The method, then: as §2
The test system of another test is Gal9 puncta. Description: Gal9 puncta by high content microscopy in metformin-treated cells. It counts as cell-based. As to the method:
as §2

The test system of test [2] is LysoTracker Red staining of acidified compartments such as lysosomes. Description: LysoTracker assay in THP-1 cells. It counts as cell-based. The following applies: 250 μM for 2 h (FIG. 5SD). The method, then: Prepare fresh LysoTracker Staining Solution (2 μL LysoTracker in 1 mL medium). Add 10 μL LysoTracker Staining Solution to no treatment, LLOMe treated or Metformin treated THP-1 cells in 96 wells for total 100 μL per well and incubate at 37° C. for 30 min protected from light. Rinse gently by 1×PBS and fix in 4% Paraformaldehyde for 2 min. Wash once by 1×PBS and blot with Hoechst 33342 for 2 min before detecting by high content microscopy.

SMILES strings stand for the structures. Where a SMILES comes first, the peptide text is derived from it. The star is where a group is joined. βNA = c1ccc2cc(N*)ccc2c1

As for `COc1cc(O)c2c(c1)/C=C/C[C@H](O)[C@H](O)C(=O)/C=C\C[C@H](C)OC2=O` [5ZO, (5-Z)-7-oxozeaenol], the LC3 response entry in the test on LC3 is “reduced the LC3 response”. For the same compound, in the test with TAK1, the “TAK1 activation with LLOMe” value was “suppressed TAK1 activation”, the “phosphorylation of AMPK substrate ACC (pS79)” value is recorded as “inhibition of phosphorylation” and the “phosphorylation of AMPKα1 (pT172)” value was “inhibition of phosphorylation”. Further, the “AMPKα1 activation upon lysosomal damage” value in the test with AMPKα1 is reported as “prevented AMPKα1 activation”.

For the compound `NCC(=O)N[C@@H](Cc1ccccc1)C(=O)Nc1ccc2ccccc2c1` [GPN, Gly-Phe β-naphthylamide] (H-Gly-Phe-βNA), the “AMPK activation upon lysosomal damage” value with AMPK is on record as “activated”.

For `Br.COC(=O)[C@H](CC(C)C)NC(=O)[C@@H](N)CC(C)C` [LLOMe, Leu-Leu methyl ester hydrobromide], the ALIX puncta response entry in the test on ALIX puncta is on record as “a robust response”. Moreover, in the test with autophagy, the autophagy induction result was “has been shown to induce autophagy”. Also, in test [1] (APEX2-Gal9 proximity biotinylation, 30 min of exposure (FIG. 4SA)), the “association between AMPK and Gal9” value is “increased association”. Moreover, the “mCherry-Gal9 association with GFP-TAK1” value in test [1] (HeLa Flp-In Gal9 Tet-ON cells, 30 min of treatment (FIG. 4SB)) is recorded as “A similar increase”. For the same compound, in the test with AMPK, the “AMPK activation upon lysosomal damage” value was “activated”. Also, the “AMPKα1 on purified lysosomes” value with AMPKα1 on lysosomes is “enrichment of AMPKα1 on lysosomes”.

As for `CN(C)C(=N)N=C(N)N` [metformin], the ALIX puncta response entry in the test with ALIX puncta is “a milder but significant response”. In addition, the “LC3 response (average area of LC3 puncta per cell)” value in the test with LC3 puncta is “a similar LC3 response”. Further, the “puncta stained for Gal8” value in the test on Gal8 puncta was “an increase in puncta stained for Gal8”. Further, the “ubiquitination response (ubiquitin puncta)” value in the test on ubiquitin puncta is “a ubiquitination response albeit of a lesser magnitude than when applying an overt lysosomal damaging agent LLOMe”. The “response of Huh7 or 293T cells to metformin” value with Gal9 puncta (Huh7 or 293T cells) is “did not respond”. Moreover, in the test with Gal9 puncta (THP-1 cells, 250 μM for 2 h, HCM (FIG. 5SB)), the “lysosomal damage response, Gal9 puncta formation” value is reported as “lysosomal damage response by detecting Gal9 puncta formation”. In addition, the “LysoTracker Red staining” value in test [2] is “a decrease in staining”.
